Measured values taken from US6537744B1, “Use of biomarkers in saliva to evaluate the toxicity of agents and the function of tissues in both biomedical and environmental applications” (priority 1995, dated 2003).

Target: saliva enzymes (esterase activity)
Test: Inhibition of saliva enzymes (esterase activity) for detection of chemicals in water
Type: biochemical, human
Experimental: The presence of chemicals in milk, water, urine and other biological fluids are detected using saliva enzymes. The detection limit for the chemicals depends on the chemical potency and the number of chemicals present in the sample. The data presented here using saliva enzymes indicates a remarkably low concentration of des N-isofenphos (DNIO) in water (3 ng/mL) is detectable using the saliva enzyme method. A 50% inhibition of esterase activity is produced at 3 ng/mL DNIO. In this procedure, the sample is passed through […] solid phase absorption column (C-18) to extract and concentrate the chemicals as described by Knaak et al. (1993). The retention of the chemicals on C-18 column depends on their lipid solubility. The non-polar compounds usually have the highest retention. Then, the chemical is eluted with 1 mL of alcohol. A 0.1 mL of the elute is tested for the inhibition of saliva enzymes as described in this application. Toxicants in solid environmental samples, fruit and vegetables can be extracted with water or proper solvent. Samples of the extract are tested for enzymes inhibition. The inhibition of saliva enzyme indicates the presence of toxicant(s) in the sample and further analysis is needed to identify the specific chemical(s).

## CCOP(N)(=O)Oc1ccccc1C(=O)OC(C)C (stereo not shown) [DNIO, des N-Isofenphos-oxon]
  concentration producing 50% inhibition of esterase activity: 3 ng/mL
